# Measurements as given in patent publication EP4790048A1, “S1PR4 REGULATOR COMPOUND FOR AUTOIMMUNE DISEASE TREATMENT AND APPLICATION THEREOF” (Shengyuan Zetong (Shanghai) Pharmaceutical Co., Ltd, priority 2023, dated 2025).
# How the values were obtained:
# [1] = system: BALB/c mice; experiment: DSS-induced acute ulcerative colitis in mice (Example 6); format: in vivo; details: for survival rate: 8 mice, model group 75%
# Method: From Day 0 to Day 14 of the experiment, the mice were weighed daily and their blood and stool conditions were observed, scored and recorded according to the following table (Table 1). Random grouping was performed on Day 1, and modeling was conducted from Day 1 to Day 7. All groups except the Control group were given 3.5% DSS water daily. Re-grouping was performed on Day 8. The Control group and Model group received no medication and were given tap water; the other groups were administered intragastrically with 1 mg/kg, 3 mg/kg, 9 mg/kg, and SASP (Sulfasalazine or Salicylazosulfapyridine) 500 mg/kg, respectively. On Day 15, blood and colon samples were collected, colon length was measured, and a 1-2 cm segment of the colon was fixed with formaldehyde.
# (§1) • BALB/c mice, male, 20-22 g • Dextran sulfate sodium MW: 36,000-50,000 (DSS) • 30 1 mg/kg, 3 mg/kg, 9 mg/kg, SASP (500 mg/kg) indicators were observed.
# (§2) (1) Clinical Symptom Score: The mice were weighed daily and their blood and stool were observed during the experiment for DAI scoring, which was graded and recorded according to the following table (Table 1).
# (§3) (2) After the experiment, the colon was removed, its length measured and weight recorded. The colon-to-body weight index (colon weight/body weight × 100%) and colon swelling rate (colon weight/length × 100%) were calculated.
# (§4) Colonic tissue approximately 1 cm from the anal margin (0.5 cm) and ileocecal region tissue were collected for histopathological examination. After H&E staining, the tissues were scored under single-blind conditions to evaluate the level of distal colon inflammation and tissue damage; scoring was performed according to the Ameho criteria and calculated as follows: • Score 0: No abnormal findings in the texture. • Score 1: Mild inflammatory infiltration of the mucosa and/or submucosa (mixed with neutrophils), submucosal edema, punctate mucosal erosion, accompanied by capillary proliferation. The muscularis mucosae is intact. • Score 2: Changes of Score 1 account for more than 50%. • Score 3: Obvious inflammatory infiltration and edema (neutrophils are often predominant); ulcers usually penetrate the muscularis mucosae to reach the submucosa. There is little inflammatory cell infiltration in the muscularis propria and no muscle necrosis. • Score 4: Changes of Score 3 account for more than 50%. • Score 5: Large confluent ulcers with coagulative necrosis, massive neutrophil infiltration at the margins and few monocytes. Necrotic tissue penetrates the muscularis propria. • Score 6: Changes of Score 5 account for more than 50% of the specimen.
# The fence function of Occludin separates the apical and basolateral sides of the epithelial cell plasma membrane, restricting the free flow of lipids on the cell membrane, facilitating the formation of cell polarity, maintaining the impermeability and rigidity of the intestinal mucosa, and preventing the entry of pathogenic microorganisms. The barrier function of Occludin can regulate the transport of small molecules and maintain tissue homeostasis. […]
# [2] = biological target: T1, S1PR4 (Homo sapiens, UniProt O95977); experiment: S1PR4 internalization and recovery test in S1PR4-293T cells; format: cell-based; details: 1 µM, 37 °C, 1.5 hours; detected immediately, 5 hours or 20 hours after treatment
# T1 construct: expressed in transfected cells; host or cells: 293T
# T1 sequence (O95977 1-384): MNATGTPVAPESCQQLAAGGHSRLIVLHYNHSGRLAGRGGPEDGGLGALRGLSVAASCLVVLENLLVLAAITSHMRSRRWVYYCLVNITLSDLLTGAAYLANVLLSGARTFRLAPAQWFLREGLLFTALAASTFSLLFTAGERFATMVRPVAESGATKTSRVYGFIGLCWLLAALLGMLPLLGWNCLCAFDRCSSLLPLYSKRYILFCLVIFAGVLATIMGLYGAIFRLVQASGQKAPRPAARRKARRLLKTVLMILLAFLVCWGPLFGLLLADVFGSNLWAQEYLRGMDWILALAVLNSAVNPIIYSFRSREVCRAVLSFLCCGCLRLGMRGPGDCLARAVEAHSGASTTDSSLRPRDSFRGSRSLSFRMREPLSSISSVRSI
# Method: Therefore, the recovery degree of S1PR4 after internalization caused by Compound 30 was evaluated, and the recovery effect following receptor internalization caused by Compound 30 was assessed in cells with high S1PR4 expression.
# [3] = system: BALB/c mice; experiment: DSS-induced chronic ulcerative colitis in mice (Example 6); format: in vivo
# From the text: BALB/c mice were acclimatized for 7 days before the experiment. From Day 7 to Day 50 of the experiment, the mice were weighed daily and their blood and stool conditions were observed, scored and recorded according to the following table (Table 1). After random grouping, all groups except the Control group were given free access to 2-3% DSS solution for modeling from Day 7 to Day 14, while the Control group received normal drinking water during the same period. One cycle lasted 14 days and was repeated 3 times. Re-grouping was performed at the start of the final cycle to initiate drug administration. The Control group and Model group received no drug but the same solvent. The other groups were intragastrically administered 1 mg/kg, 3 mg/kg, 9 mg/kg, and SASP 500 mg/kg respectively. On Day 45, blood and colon samples were collected, colon length was measured, and a 1-2 cm colon segment was fixed with formaldehyde.
# as §1, §2, §3, §4
# The fence function of Occludin separates the apical and basolateral sides of the epithelial cell plasma membrane, restricting the free flow of lipids on the cell membrane, facilitating the formation of cell polarity, maintaining the impermeability and rigidity of the intestinal mucosa, and preventing the entry of pathogenic microorganisms. The barrier function of Occludin can regulate the transport of small molecules and maintain tissue homeostasis. The expression and distribution of related proteins are detected by immunohistochemistry.
# During modeling, the body weight of mice in the control group increased steadily. In the model group, during the first modeling period, mice were given 3% DSS drinking water ad libitum for 7 days, followed by tap water ad libitum for 7 days. On Day 4 of modeling, the body weight of mice began to decrease generally, reaching the lowest point on Day 8, and then started to rise. During the second modeling period, mice were given 2% DSS drinking water ad libitum for 7 days, followed by tap water ad libitum for 7 days. […]
smiles,measurement,setting,value
CCc1cc(/C(C)=N/OCc2ccc(-c3ccccc3)c(C)c2)ccc1CN1CC[C@H](C(=O)O)C1 [Compound 30],survival rate,[1]; 30 1 mg/kg intragastric from Day 8,87.5%
same,colon length,"[1]; 30 1 mg/kg, p<0.05 vs Model group",significantly inhibited DSS-induced colon shortening
same,survival rate,[1]; 30 3 mg/kg intragastric from Day 8,87.5%
same,colon length,"[1]; 30 3 mg/kg, p<0.01 vs Model group",significantly inhibited DSS-induced colon shortening
same,total DAI scores over 14 days,"[1]; 30 3 mg/kg, vs model group",significantly lower
same,survival rate,[1]; 30 9 mg/kg intragastric from Day 8,75%
same,body weight recovery,"[1]; 30 at 3 mg/kg, SASP at 500 mg/kg, vs model group",faster body weight recovery with a greater rebound amplitude
same,colon pathological changes (H&E staining),[1]; 30 at 9 mg/kg,obvious inflammatory cell infiltration and reduced goblet cells
same,daily DAI score,"[1]; 30 treatment groups, SASP 500 mg/kg, vs model group",decreased more rapidly
same,colon pathological changes (H&E staining),[1]; Compound 30 1 mg/kg,no obvious inflammatory cell infiltration was observed
same,colon pathological changes (H&E staining),[1]; Compound 30 3 mg/kg,no obvious inflammatory cell infiltration was observed
same,Occludin expression in colonic mucosa (immunohistochemistry),[1]; vs Model group,the expression of Occludin was increased
same,Occludin protein in colon (Western blotting),[1]; vs Model group,increase the expression of Occludin
same,S1PR4 internalization (expression of S1PR4 receptor on the cell surface),[2],sustained internalization of S1PR4 for up to 20 hours
same,body weight during administration,[3]; 30 1 mg/kg,remained relatively stable during administration
same,body weight during administration,[3]; 30 3 mg/kg,remained relatively stable during administration
same,body weight change rate,"[3]; 30 3 mg/kg, before and after administration, vs model group",significantly increased
same,total DAI scores of the administration for 14 days,"[3]; 30 3 mg/kg, vs model group",significantly lower
same,colon pathological changes (H&E staining),[3]; 30 at 1 mg/kg,no obvious inflammatory cell infiltration was observed
same,colon pathological changes (H&E staining),[3]; 30 at 3 mg/kg,no obvious inflammatory cell infiltration was observed
same,daily DAI score,"[3]; 30 treatment group, SASP 500 mg/kg, vs model group",decreased more rapidly
same,body weight recovery,"[3]; 30 treatment groups (1, 3, 9 mg/kg), SASP 500 mg/kg, vs model group",recovered rapidly and increased substantially
same,colon length,"[3]; Compound 30 3 mg/kg, vs Model group",significantly inhibited DSS-induced colon shortening
same,colon length,"[3]; Compound 30 9 mg/kg, vs Model group",significantly inhibited DSS-induced colon shortening
same,Occludin expression in colonic mucosa (immunohistochemistry),[3]; vs Model group,the expression of Occludin was increased
